{
  "source": "paper PMC6133293",
  "about": "(SLAS discovery : advancing life sciences R & D, 2018)",
  "biological_target": "G551D-CFTR (Homo sapiens, UniProt P13569, G551D)",
  "sequence (P13569 whole entry G551D)": "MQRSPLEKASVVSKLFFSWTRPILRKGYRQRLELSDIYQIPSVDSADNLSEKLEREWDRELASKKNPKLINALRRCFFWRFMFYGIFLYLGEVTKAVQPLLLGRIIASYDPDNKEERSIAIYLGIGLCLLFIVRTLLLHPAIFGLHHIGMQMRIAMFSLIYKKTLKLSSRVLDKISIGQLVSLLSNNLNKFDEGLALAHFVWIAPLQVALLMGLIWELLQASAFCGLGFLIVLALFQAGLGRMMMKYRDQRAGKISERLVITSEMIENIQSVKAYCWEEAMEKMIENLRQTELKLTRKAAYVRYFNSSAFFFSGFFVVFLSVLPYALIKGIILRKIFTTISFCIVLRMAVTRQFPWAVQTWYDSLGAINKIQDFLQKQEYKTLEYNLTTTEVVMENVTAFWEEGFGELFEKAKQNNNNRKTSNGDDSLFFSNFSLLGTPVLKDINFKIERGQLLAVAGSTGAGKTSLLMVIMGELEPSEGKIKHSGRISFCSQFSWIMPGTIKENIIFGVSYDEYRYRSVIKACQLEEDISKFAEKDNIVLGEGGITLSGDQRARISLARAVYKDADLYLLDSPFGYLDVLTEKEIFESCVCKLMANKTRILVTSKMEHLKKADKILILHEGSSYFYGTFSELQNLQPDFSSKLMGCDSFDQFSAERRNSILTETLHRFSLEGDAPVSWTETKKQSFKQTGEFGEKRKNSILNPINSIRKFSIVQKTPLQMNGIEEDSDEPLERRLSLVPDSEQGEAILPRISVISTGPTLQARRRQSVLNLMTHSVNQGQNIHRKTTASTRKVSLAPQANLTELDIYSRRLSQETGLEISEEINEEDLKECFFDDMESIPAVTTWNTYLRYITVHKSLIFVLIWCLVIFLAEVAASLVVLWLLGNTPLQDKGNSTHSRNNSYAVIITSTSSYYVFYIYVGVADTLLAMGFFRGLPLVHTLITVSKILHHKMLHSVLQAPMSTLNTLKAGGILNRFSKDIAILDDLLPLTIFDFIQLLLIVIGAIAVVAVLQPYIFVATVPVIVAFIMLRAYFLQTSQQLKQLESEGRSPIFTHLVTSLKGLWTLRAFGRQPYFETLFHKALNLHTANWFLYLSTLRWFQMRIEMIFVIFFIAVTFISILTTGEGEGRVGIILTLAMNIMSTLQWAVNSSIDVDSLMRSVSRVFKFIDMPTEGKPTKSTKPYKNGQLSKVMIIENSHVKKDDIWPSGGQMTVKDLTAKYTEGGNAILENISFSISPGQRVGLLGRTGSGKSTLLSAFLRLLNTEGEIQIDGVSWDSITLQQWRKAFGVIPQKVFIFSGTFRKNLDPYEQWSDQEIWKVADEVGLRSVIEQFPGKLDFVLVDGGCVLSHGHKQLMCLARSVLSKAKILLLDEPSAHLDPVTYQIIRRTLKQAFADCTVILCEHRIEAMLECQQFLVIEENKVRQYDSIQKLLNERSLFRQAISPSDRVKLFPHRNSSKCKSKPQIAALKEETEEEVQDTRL",
  "assay": "short-circuit current in FRT cells, positive control potentiator",
  "type": "cell-based",
  "data": [
    {"smiles": "CC(C)(C)c1cc(C(C)(C)C)c(NC(=O)c2c[nH]c3ccccc3c2=O)cc1O", "note": "[VX-770]", "values": [
      {"measurement": "short-circuit current in FRT cells, positive control potentiator", "result": "A-01 did not activate G551D-CFTR at high concentration, with VX-770 shown as the positive control"}
    ]}
  ]
}
